Results on 23 compounds are retold here after patent US12208088B2 (Genentech, Inc., priority 2018, dated 2025).

This assay concerns the target HPK1 (Homo sapiens (Human), UniProt Q92918). The experiment in a line: HPK1 Lantha binding assay ("Lanth"). To be noted: binding assays; Morrison Ki fit. The procedure, abridged: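 TR-FRET binding competition using 2 nM HPK1, 2 nM Eu-anti-GST antibody and 15 nM Tracer222 at 23 °C. Compound was incubated 1 h with enzyme and antibody, then 1 h after tracer addition, with an 11-point 5-fold dilution series. Ki obtained from a Morrison fit that corrects for tracer concentration and Kd.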

HPK1, sequence (Q92918 1-346 limits assumed): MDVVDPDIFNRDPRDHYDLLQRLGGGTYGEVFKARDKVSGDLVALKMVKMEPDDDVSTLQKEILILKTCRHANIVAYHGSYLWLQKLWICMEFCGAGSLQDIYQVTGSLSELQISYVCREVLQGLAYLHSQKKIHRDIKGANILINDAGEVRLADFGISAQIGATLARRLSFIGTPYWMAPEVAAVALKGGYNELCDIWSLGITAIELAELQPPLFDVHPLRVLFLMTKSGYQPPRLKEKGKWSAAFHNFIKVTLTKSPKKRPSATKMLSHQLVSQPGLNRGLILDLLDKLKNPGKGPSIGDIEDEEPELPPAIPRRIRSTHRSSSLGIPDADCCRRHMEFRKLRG

One may read the Ki as a measure of affinity in units of concentration, obtained from inhibition or displacement. `N#CCCNC(=O)c1ccc(-c2cnc3c(c2Cl)C2(CC=CC2)CN3)cc1` [Compound 221, 4-(4′-Chloro-1′,2′-dihydrospiro[cyclopentane-1,3′-pyrrolo[2,3-b]pyridin]-3-en-5′-yl)-N-(2-cyanoethyl)benzamide] had a Ki of 303 nM.
To `CC(=O)Nc1cccc(-c2cnc3c(c2Cl)C2(CC=CC2)CN3)c1` [Compound 222, N-(3-(4′-Chloro-1′,2′-dihydrospiro[cyclopentane-1,3′-pyrrolo[2,3-b]pyridin]-3-en-5′-yl)phenyl)acetamide] belongs 275 nM.
The result for `COCCc1ccc(-c2cnc3c(c2Cl)C2(CC=CC2)CN3)cc1` [Compound 223, 4′-Chloro-5′-(4-(2-methoxyethyl)phenyl)-1′,2′-dihydrospiro[cyclopentane-1,3′-pyrrolo[2,3-b]pyridin]-3-ene] reads 436 nM; that for `Nc1ccc(-c2cnc3c(c2Cl)C2(CC=CC2)CN3)cc1` [Compound 224, 4-(4′-Chloro-1′,2′-dihydrospiro[cyclopentane-1,3′-pyrrolo[2,3-b]pyridin]-3-en-5′-yl)aniline], 126 nM.
In the case of `Nc1ccc(-c2cnc3c(c2Cl)C2(CC=CC2)CN3)c(F)c1` [Compound 225, 4-(4′-Chloro-1′,2′-dihydrospiro[cyclopentane-1,3′-pyrrolo[2,3-b]pyridin]-3-en-5′-yl)-3-fluoroaniline], the affinity corresponds to a Ki of 363 nM. This Ki lies about 2.9-fold higher than the previous one.
Compound `CN(C)C(=O)c1cccc(-c2cnc3c(c2Cl)C2(CC=CC2)CN3)c1` [Compound 226, 3-(4′-Chloro-1′,2′-dihydrospiro[cyclopentane-1,3′-pyrrolo[2,3-b]pyridin]-3-en-5′-yl)-N,N-dimethylbenzamide] displayed an inhibition constant (Ki) of 14 nM.
To `CN(C)C(=O)c1cccc(-c2cnc3c(c2Cl)C2(CC=CC2)CN3)c1F` [Compound 227, 3-(4′-Chloro-1′,2′-dihydrospiro[cyclopentane-1,3′-pyrrolo[2,3-b]pyridin]-3-en-5′-yl)-2-fluoro-N,N-dimethylbenzamide] belongs 11.2 nM; to `O=C(c1ccc(-c2cnc3c(c2Cl)C2(CC=CC2)CN3)cc1Cl)N1CCC(O)CC1` [Compound 230, (2-Chloro-4-(4′-chloro-1′,2′-dihydrospiro[cyclopentane-1,3′-pyrrolo[2,3-b]pyridin]-3-en-5′-yl)phenyl)(4-hydroxypiperidin-1-yl)methanone], 173 nM; to `O=C(c1ccc(-c2cnc3c(c2Cl)C2(CC=CC2)CN3)cc1)N1CCOCC1` [Compound 231, (4-(4′-Chloro-1′,2′-dihydrospiro[cyclopentane-1,3′-pyrrolo[2,3-b]pyridin]-3-en-5′-yl)phenyl)(morpholino)methanone], 447 nM.
For `O=C(c1cccc(-c2cnc3c(c2)C2(CC2)CN3)c1F)N1CCCCC1` [Compound 232, (3-(1′,2′-dihydrospiro[cyclopropane-1,3′-pyrrolo[2,3-b]pyridin]-5′-y1)-2-fluorophenyl)(piperidin-1-yl)methanone], the inhibition constant Ki worked out at 33.7 nM.
In the case of `Cc1c(-c2ccc(N)c(C(=O)N(C)C)c2F)cnc2c1C1(CCCCC1)CN2` [Compound 233, 6-Amino-2-fluoro-N,N-dimethyl-3-(4′-methyl-1′,2′-dihydrospiro[cyclohexane-1,3′-pyrrolo[2,3-b]pyridin]-5′-yl)benzamide], the affinity corresponds to a Ki of 26.1 nM.
As for `CC(C)[C@@H]1C[C@]12CNc1ncc(-c3ccc(N)c(C(=O)N(C)C)c3F)cc12` [Compound 234b, 6-Amino-2-fluoro-3-((1S,2S)-2-isopropyl-1′,2′-dihydrospiro[cyclopropane-1,3′-pyrrolo[2,3-b]pyridin]-5′-yl)-N,N-dimethylbenzamide], the Ki stood at 38 nM.
To `CN(C)C(=O)c1c(N)ccc(-c2cnc3c(c2Cl)[C@]2(CC[C@@H](C(N)=O)CC2)CN3)c1F` [Compound 235a, (1r,4r)-5′-(4-Amino-3-(dimethylcarbamoyl)-2-fluorophenyl)-4′-chloro-1′,2′-dihydrospiro[cyclohexane-1,3′-pyrrolo[2,3-b]pyridine]-4-carboxamide] belongs 46.7 nM; to `CN(C)C(=O)c1c(N)ccc(-c2cnc3c(c2Cl)[C@]2(CC[C@H](C(N)=O)CC2)CN3)c1F` [Compound 235b, (1s,4s)-5′-(4-Amino-3-(dimethylcarbamoyl)-2-fluorophenyl)-4′-chloro-1′,2′-dihydrospiro[cyclohexane-1,3′-pyrrolo[2,3-b]pyridine]-4-carboxamide], 11.9 nM; to `NC(=O)C1(c2cccc(-c3cnc4c(c3Cl)C3(CC=CC3)CN4)c2)CC1` [Compound 236, 1-(3-(4′-Chloro-1′,2′-dihydrospiro[cyclopentane-1,3′-pyrrolo[2,3-b]pyridin]-3-en-5′-yl)phenyl)cyclopropane-1-carboxamide], 33.2 nM.
To `Clc1c(-c2ccc(Oc3ncccn3)cc2)cnc2c1C1(CC=CC1)CN2` [Compound 237, 4′-Chloro-5′-(4-(pyrimidin-2-yloxy)phenyl)-1′,2′-dihydrospiro[cyclopentane-1,3′-pyrrolo[2,3-b]pyridin]-3-ene] belongs 283 nM.
In the case of `Cc1cc(C)n(-c2cccc(-c3cnc4c(c3Cl)C3(CC=CC3)CN4)c2)n1` [Compound 238, 4′-Chloro-5′-(3-(3,5-dimethyl-1H-pyrazol-1-yl)phenyl)-1′,2′-dihydrospiro[cyclopentane-1,3′-pyrrolo[2,3-b]pyridin]-3-ene], the affinity, expressed as Ki, was 22.9 nM.
As to `CN(C)C(=O)c1c(N)ccc(-c2cnc3c(c2Cl)[C@]2(CC[C@@H](C#N)CC2)CN3)c1F` [Compound 241a, 6-Amino-3-((1r,4r)-4′-chloro-4-cyano-1′,2′-dihydrospiro[cyclohexane-1,3′-pyrrolo[2,3-b]pyridin]-5′-yl)-2-fluoro-N,N-dimethylbenzamide], the Ki was 44.8 nM.
To `CN(C)C(=O)c1c(N)ccc(-c2cnc3c(c2Cl)[C@]2(CC[C@H](C#N)CC2)CN3)c1F` [Compound 241b, 6-Amino-3-((1s,4s)-4′-chloro-4-cyano-1′,2′-dihydrospiro[cyclohexane-1,3′-pyrrolo[2,3-b]pyridin]-5′-yl)-2-fluoro-N,N-dimethylbenzamide] belongs 12.5 nM; to `Cc1c(CC#N)ccnc1-c1cccc(-c2cnc3c(c2)C2(CC2)CN3)c1` [Compound 242, 2-(2-(3-(1′,2′-Dihydrospiro[cyclopropane-1,3′-pyrrolo[2,3-b]pyridin]-5′-yl)phenyl)-3-methylpyridin-4-yl)acetonitrile], 11.7 nM; to `N#CC1CCCCN1C(=O)c1cccc(-c2cnc3c(c2)C2(CC2)CN3)c1F` (centres unmarked) [Compound 244, 1-(3-(1′,2′-Dihydrospiro[cyclopropane-1,3′-pyrrolo[2,3-b]pyridin]-5′-yl)-2-fluorobenzoyl)piperidine-2-carbonitrile], 8.25 nM.
The result for `Cn1cc(C2CCCCN2C(=O)c2cccc(-c3cnc4c(c3)[C@]3(CC[C@H](O)CC3)CN4)c2F)cn1` (stereo partly drawn) [Compound 245a, (2-Fluoro-3-((1s,4s)-4-hydroxy-1′,2′-dihydrospiro[cyclohexane-1,3′-pyrrolo[2,3-b]pyridin]-5′-yl)phenyl)((R)-2-(1-methyl-1H-pyrazol-4-yl)piperidin-1-yl)methanone] reads 42 nM.
To `CC(C)(C)c1nnc(-c2cccc(-c3cnc4c(c3Cl)C3(CC=CC3)CN4)c2)o1` [Compound 247, 2-(tert-Butyl)-5-(3-(4′-chloro-1′,2′-dihydrospiro[cyclopentane-1,3′-pyrrolo[2,3-b]pyridin]-3-en-5′-yl)phenyl)-1,3,4-oxadiazole] belongs 253 nM.
